According to patent US5401733A, “Stable and active metabolites of 1,25-dihydroxy-16-ene-cholecalciferol” (Hoffmann-La Roche Inc., priority 1993, dated 1995):
“Also recorded” adds a separate entry of the source. Read-outs that look alike come from different tables or passages of the source. Blank lines part the entries; values can stand above or below the compound they belong to.

Key:
HL-60 cells = experiment: Differentiation of HL-60 cells (NBT reduction), 4 days; format: cell-based, human; details: for Percentage of NBT positive cells, Exp. 1 / Percentage of NBT positive cells, Exp. 2 / Percentage of NBT positive cells, Average / EC50: 4 days; for Percentage of NBT positive cells, Average: average of Exp. 1 and 2; for EC50: Homo sapiens, HL-60, 96 h, NBT reduction, read-out: ED50 (concentration of compound which induced differentiation of 50% of the cells)
Description: Effect of 1,25(OH)2 -16-ene-24-oxo-D3 on the Morphological Differentiation of HL-60 Cells
Tissue culture medium used was RPMI-1640 (Gibco) supplemented with glutamine, antibiotics and 20% fetal bovine serum.
1,25(OH)2 -16-ene-D3 and 1,25(OH)2 -16-ene-24-oxo-D3 were dissolved in sufficient ethanol to yield stock solutions of 1 mM. Reduced lighting was used when working with the compounds and the stock solutions were stored in the dark at -20 C. in an argon atmosphere. The stock solutions were added to flasks, which were supplemented with sufficient ethanol to achieve the final concentration of 0.1%.
A HL-60 tumor cell line was originally derived from a patient with promyelocytic leukemia and was obtained from the American Type Culture Collection (ATCC #CCL240). The cells were maintained in liquid cultures by serial passage twice weekly in the tissue culture medium. For each experimental point, cells were grown in replicate flasks. The cells were seeded at a rate of 10^6 cells per 25 cm^2 flask and grown in the presence of the compounds for a total of 4 days. Ethanol, used as the vehicle, was kept constant in all dilutions in each experiment and had no effect on the cell differentiation at the concentrations used […]. After 4 days of incubation at 37° C., cultures were evaluated for cell differentiation.
Quantitation of differentiated cells was done by the biochemical method of nitroblue tetrazolium reduction (NBT) reduction. A 1 ml aliquot of cell suspension was removed from each flask and centrifuged for 10 minutes, and resuspended in about 200 μl of a work solution. The work solution contained 100 ng of tetradecanoyl phorbol acetate per ml of NBT and was kept in a covered vial on ice. The NBT was prepared fresh on the day of enumeration to 1 mg/ml in growth medium. The cells were incubated in a 37° C. water bath for 30 minutes. An aliquot was placed into a hemocytometer and the total number of blue-black cells per approximately 200 cells was determined. The percentage of differentiated cells was then calculated.
The results are also shown as the concentration of compound which induced differentiation of 50% of the cells (ED50).

human keratinocytes [1] = experiment: Keratinocyte proliferation, assay 2 (KGM without calcium supplementation, 7 days); format: cell-based; details: for proliferation of human keratinocytes / skin cells (in words): assays 1 and 2 not distinguished; for inhibition at 0.03 µM / inhibition at 0.1 µM / inhibition at 0.3 µM / inhibition at 1 µM: Homo sapiens, Keratinocyte, Exp. 1, read-out: Percentage Inhibition of Controls, Exp. 1; for inhibition at 0.03 µM: assay 2, 0.03 μM; for inhibition at 0.1 µM: assay 2, 0.1 μM; for inhibition at 0.3 µM: assay 2, 0.3 μM; for inhibition at 1 µM: assay 2, 1.0 μM; for antiproliferative activity, assay 2 (in words): assay 2, lower doses; for dose response (in words): low calcium and more rapidly dividing cells
Description: (§1) Quantitation of Morphological Changes During Keratinocyte Proliferation Materials and Methods
(§2) Human neonatal foreskins were collected by circumcision and placed into tubes containing Dulbecco's Modified Eagle's Medium (DMEM) with 10% serum. On arrival at the laboratory, they were mechanically trimmed of excess dermis, and treated with a solution of trypsin/EDTA (0.05%/0.02%) at 4° C. overnight. The epidermis was stripped from the dermis, agitated in buffered saline containing soybean trypsin inhibitor to remove basal keratinocytes and the stratum cornea layer was removed. The separated cells were centrifuged, resuspended in the above media, counted, and the cells plated onto plastic culture dishes or plates at a density of 25,000 cells/cm^2 in keratinocyte growth media (KGM®-modified MCDB 153, Clonetics, Inc., Catalog #CC3001) according to protocols developed by Boyce and Ham (In Vitro Models for Cancer Research III, 246-274, 1986) for MCDB 153 media. The cultures were incubated in humidified chambers with 5% CO2 at 37° C. The cultures were refed with fresh media two to three times per week. Prior to reaching confluency the cells were replated (passage one) at 25,000 cells/well on 6-well cluster plates (Costar catalog #3506) in KGM.
(§3) 1 milligram quantities were received in amber glass vials, and stored at -20° C. Sufficient 100% ethanol was added directly to the vials to obtain a millimolar solution that was subsequently aliquoted into small amber vials, overlayed with argon gas and stored at […] Each stock solution was thawed once, used and discarded. Aliquots from the stock solutions were diluted directly into medium and then serially diluted from micromolar to 10^-12 M concentrations. Dilutions from 10^-8 M to 10^-12 M had ethanol added for a final concentration of 0.1%. Stock solutions were used within one month. Control cultures were treated with 0.1% ethanol.
(§4) Approximately 24 hours after passage one, the cells were refed with fresh KGM supplemented to 1.5 mM CaCl2 (assay 1) containing the test compound. In a second assay (assay 2), the cells were grown in KGM without calcium supplementation to stimulate more proliferation and grown for 7 days instead of 5 days. Compounds were typically tested at 4 concentrations in triplicate wells. At the termination of the experiment, prior to the cultures reaching confluency, the cells were enumerated as follows. Dishes were rinsed with phosphate buffered saline, and then incubated with trysin/EDTA solution for 15 minutes. Cells were suspended, an aliquot placed into isotonic buffered saline and counted on an electronic particle counter (Coulter Counter). The counter was periodically calibrated for the correct size of keratinocytes. Each well was counted in triplicate. The number of cells per dish were calculated according to dilution factors used and results shown below in Table 3 are presented as percent inhibition obtained in control cultures.

hydroxylase enzymes = experiment: Metabolism in perfused rat kidneys; format: in vitro ADME; details: for resistance to further hydroxylation (in words): rat kidney perfusion
Description: The compounds of formulas I and II were prepared by perfusing 1,25(OH)2 -16-ene-D3 in rat kidneys, extracting the perfusate and isolating the compounds of formulas I and II.
Crystalline 1,25(OH)2 -16-ene-D3 was synthesized as described in U.S. Pat. No. 5,087,619, which is herein incorporated by reference to the extent necessary to enable one of skill in the art to make this invention. Rat kidneys were perfused with the 1,25(OH)2 -16-ene-D3 as described in Am. J. Physiol. 1982, 243 E265-271 and in Biochemistry 1987, 26, 324-331. Cold 1,25(OH)2 -16-ene-D3 (400 nmoles) was introduced into 100 mL of perfusate and the kidney perfusion was continued for 8 hours. Lipid extraction of the final kidney perfusate was performed according to the procedure described in Can. J. Biochem. Physiol. 1959, 37, 911-917. Half of the bulk lipid extract from the final perfusate of about 100 mL was then subjected directly to high pressure liquid chromatography (HPLC) performed with a Waters Model 600 equipped with a Model 990 photo diode array detector (Waters Associates, Milford, MA). HPLC analysis was performed on the lipid extract obtained from 50 mL of perfusate under the following conditions: Zorbax-SIL column (25 cm×4.6 mm); Hexane: 2-propanol (90:10), Flow rate: 2 mL/minutes. A known amount of 25(S),26(OH)2 -D3 was added to the perfusate at the time of lipid extraction to assess extraction of vitamin D metabolites in general. Fractions of each individual metabolite from the first HPLC run was pooled and subjected to a second HPLC run using the same Zorbax-SIL column eluted with methylene chloride:2-propanol […]. Each metablite obtained from the second HPLC run was chromatographed twice using the first HPLC system. At this time, the purity of each metabolite was adequate for its structure identification process. A control perfusion was performed with cold 1,25(OH)2 -D3 in a similar fashion and the lipid extract of the final perfusate was analyzed using the same HPLC systems as above.

human keratinocytes [2] = experiment: Keratinocyte proliferation, assay 1 (KGM supplemented to 1.5 mM CaCl2, 5 days); format: cell-based; details: for inhibition at 0.03 µM / inhibition at 0.1 µM / inhibition at 0.3 µM / inhibition at 1 µM: Homo sapiens, Keratinocyte; for inhibition at 0.03 µM: assay 1, 0.03 μM; for inhibition at 0.1 µM: assay 1, 0.1 μM; for inhibition at 0.3 µM: assay 1, 0.3 μM; for inhibition at 1 µM: assay 1, 1.0 μM; for antiproliferative activity, assay 1 (in words): assay 1, lower doses
Description: as §1, §2, §3, §4

[3] = Exp. 2, read-out: Percentage Inhibition of Controls, Exp. 2
[4] = average of Exp. 1 and 2, read-out: Percentage Inhibition of Controls, Average

Structure (SMILES): C=C1/C(=C\C=C2/CCC[C@]3(C)C([C@H](C)CCC(O)C(C)(C)O)=CC[C@@H]23)C[C@@H](O)C[C@@H]1O (stereo partly drawn) [1,24,25(OH)3-16-ene-D3, 1,24,25-trihydroxy-16-ene-cholecalciferol]
differentiation of HL-60 / human promyelocytic cells (in words) (HL-60 cells): stimulate differentiation of HL-60 cells
proliferation of human keratinocytes / skin cells (in words) (human keratinocytes [1]): decrease proliferation of human keratinocytes
resistance to further hydroxylation (in words) (hydroxylase enzymes): resisted further hydroxylation from other hydroxylase enzymes

EC50 (HL-60 cells): 35 nM
Structure (SMILES): C=C1/C(=C\C=C2/CCC[C@]3(C)C([C@H](C)CCC(=O)C(C)(C)O)=CC[C@@H]23)C[C@@H](O)C[C@@H]1O [1,25(OH)2-16-ene-24-oxo-D3, 1,25-dihydroxy-16-ene-24-oxo-cholecalciferol]
differentiation of HL-60 / human promyelocytic cells (in words) (HL-60 cells): induced differentiation of human promyelocytic cells; also recorded: stimulates differentiation of HL-60 cells
Percentage of NBT positive cells, Exp. 1 (HL-60 cells; 0.001 μM): 8.0%
Percentage of NBT positive cells, Exp. 2 (HL-60 cells; 0.001 μM): 24.5%
Percentage of NBT positive cells, Average (HL-60 cells; 0.001 μM): 16.25%
Percentage of NBT positive cells, Exp. 1 (HL-60 cells; 0.01 μM): 47.0%
Percentage of NBT positive cells, Exp. 2 (HL-60 cells; 0.01 μM): 35.5%
Percentage of NBT positive cells, Average (HL-60 cells; 0.01 μM): 41.25%
Percentage of NBT positive cells, Exp. 1 (HL-60 cells; 0.1 μM): 55.0%
Percentage of NBT positive cells, Exp. 2 (HL-60 cells; 0.1 μM): 60.0%
Percentage of NBT positive cells, Average (HL-60 cells; 0.1 μM): 57.5%
Percentage of NBT positive cells, Exp. 1 (HL-60 cells; 1.0 μM): 69.0%
Percentage of NBT positive cells, Exp. 2 (HL-60 cells; 1.0 μM): 70.0%
Percentage of NBT positive cells, Average (HL-60 cells; 1.0 μM): 69.5%
differentiation of HL-60 / human promyelocytic cells (in words) (HL-60 cells; listed as I): stimulate differentiation of HL-60 cells
potency relative to the parent compound (in words) (HL-60 cells; versus 1,25(OH)2 -16-ene-D3): greater than that of the parent compound
inhibition at 0.03 µM (human keratinocytes [2]; [3]): 82.8%
inhibition at 0.03 µM (human keratinocytes [2]; [4]): 80.1%
inhibition at 0.1 µM (human keratinocytes [2]; [3]): 108%
inhibition at 0.1 µM (human keratinocytes [2]; [4]): 89.1%
inhibition at 0.3 µM (human keratinocytes [2]; [3]): 73.3%
inhibition at 0.3 µM (human keratinocytes [2]; [4]): 67.8%
inhibition at 1 µM (human keratinocytes [2]; [3]): 73.1%
inhibition at 1 µM (human keratinocytes [2]; [4]): 68.1%
antiproliferative activity, assay 1 (in words) (human keratinocytes [2]): some antiproliferative activity at lower doses, although this activity is not dose dependent
inhibition at 0.03 µM (human keratinocytes [1]): 63 ± 7.21%
inhibition at 0.1 µM (human keratinocytes [1]): 45.3 ± 9.48%
inhibition at 0.3 µM (human keratinocytes [1]): 31.1 ± 11.8%
inhibition at 1 µM (human keratinocytes [1]): 17.4 ± 8.13%
antiproliferative activity, assay 2 (in words) (human keratinocytes [1]): strong antiproliferative activity at lower doses
proliferation of human keratinocytes / skin cells (in words) (human keratinocytes [1]): restrained the proliferation of skin cells
proliferation of human keratinocytes / skin cells (in words) (human keratinocytes [1]; listed as I): decrease proliferation of human keratinocytes
dose response (in words) (human keratinocytes [1]): good dose response curve
resistance to further hydroxylation (in words) (hydroxylase enzymes): resisted further hydroxylation from other hydroxylase enzymes

EC50 (HL-60 cells): 80 nM
metabolism (in words) (hydroxylase enzymes; 400 nmoles in 100 mL perfusate, 8 hours): metabolized mainly into two metabolites
Structure (SMILES): C=C1/C(=C\C=C2/CCC[C@]3(C)C([C@H](C)CCCC(C)(C)O)=CC[C@@H]23)C[C@@H](O)C[C@@H]1O [1,25(OH)2-16-ene-D3, 1,25-dihydroxy-16-ene-cholecalciferol]
Percentage of NBT positive cells, Exp. 1 (HL-60 cells; 0.001 μM): 12.0%
Percentage of NBT positive cells, Exp. 2 (HL-60 cells; 0.001 μM): 18.5%
Percentage of NBT positive cells, Average (HL-60 cells; 0.001 μM): 15.25%
Percentage of NBT positive cells, Exp. 1 (HL-60 cells; 0.01 μM): 30.5%
Percentage of NBT positive cells, Exp. 2 (HL-60 cells; 0.01 μM): 47.5%
Percentage of NBT positive cells, Average (HL-60 cells; 0.01 μM): 39.0%
Percentage of NBT positive cells, Exp. 1 (HL-60 cells; 0.1 μM): 48.0%
Percentage of NBT positive cells, Exp. 2 (HL-60 cells; 0.1 μM): 61.0%
Percentage of NBT positive cells, Average (HL-60 cells; 0.1 μM): 54.5%
Percentage of NBT positive cells, Exp. 1 (HL-60 cells; 1.0 μM): 62.5%
Percentage of NBT positive cells, Exp. 2 (HL-60 cells; 1.0 μM): 60.5%
Percentage of NBT positive cells, Average (HL-60 cells; 1.0 μM): 61.5%
inhibition at 0.03 µM (human keratinocytes [2]; [3]): 88.4%
inhibition at 0.03 µM (human keratinocytes [2]; [4]): 89.8%
inhibition at 0.1 µM (human keratinocytes [2]; [3]): 83.6%
inhibition at 0.1 µM (human keratinocytes [2]; [4]): 82.3%
inhibition at 0.3 µM (human keratinocytes [2]; [3]): 89%
inhibition at 0.3 µM (human keratinocytes [2]; [4]): 84.5%
inhibition at 1 µM (human keratinocytes [2]; [3]): 57.1%
inhibition at 1 µM (human keratinocytes [2]; [4]): 58.5%
antiproliferative activity, assay 1 (in words) (human keratinocytes [2]): some antiproliferative activity at lower doses, although this activity is not dose dependent
inhibition at 0.03 µM (human keratinocytes [1]): 75.6 ± 3.35%
inhibition at 0.1 µM (human keratinocytes [1]): 56.2 ± 5.7%
inhibition at 0.3 µM (human keratinocytes [1]): 36 ± 10.3%
inhibition at 1 µM (human keratinocytes [1]): 22.4 ± 8.55%
antiproliferative activity, assay 2 (in words) (human keratinocytes [1]): strong antiproliferative activity at lower doses
dose response (in words) (human keratinocytes [1]): good dose response curve
